Measured values reported in patent US20130023494A1, “MODULATORS OF THE GPR119 RECEPTOR AND THE TREATMENT OF DISORDERS RELATED THERETO” (ARENA PHARMACEUTICALS, INC., priority 2010, published 2013).

Experiments:
humans = details: cited from earlier work
incretin hormone GIP = experiment: Incretin hormone GIP release in male 129SVE mice (Total GIP ELISA); type: in vivo, mouse; details: 10 mpk p.o., plasma sample after 45 min, PET vehicle 72.5
Procedure: Male 129SVE mice (approximately 8-week old) were fasted for 18 h and randomly grouped (n=6) to receive a GPR119 agonist (Compound 28, Compound 73, Compound 71, Compound 62, and Compound 30) at 10 mpk dose (mg/kg body weight). Compounds were delivered orally via a gavage needle (p.o., volume 4 mL/kg), and after 45 min a blood sample was collected to determine plasma total GIP levels. A separate group received vehicle (PET: 80% PEG:10% Ethanol:10% Tween80™) as control. Plasma GIP levels were determined using a Total GIP ELISA kit from Millipore.

[1] = test system: human patients suffering with type 2 diabetes; details: oral administration, human patients with type 2 diabetes; cited from earlier work
GPR119 = details: combined administration with a DPP-IV inhibitor, compared with either agent alone; cited from earlier work
male diabetic ZDF rats = experiment: Oral glucose tolerance test (oGTT) in male diabetic ZDF rats; type: in vivo, rat; details: for % Inhibition of Glucose Excursion (dose: mg/kg): ZDF rats, glucose excursion AUC reduction relative to vehicle; for blood glucose after challenge with glucose: diabetic ZDF rats
Procedure: FIGS. 1 to 4, 16 and 17 show results of three independent experiments with three representative GPR119 agonists of the present invention, namely, Compound 28, Compound 62, and Compound 83. In each experiment, male ZDF rats (approximately 10-week old) were fasted for 18 hours and randomly grouped (n=6) to receive a GPR119 agonist (Compound 28, Compound 62, or Compound 83) at indicated doses (mg/kg body weight). Compounds were delivered orally via a gavage needle (p.o., volume 4 mL/kg) 1 h prior to glucose bolus (3 g/kg) (time=−60 min in FIGS. 1, 3, and 16), with a separate group receiving vehicle (20% hydroxypropyl-beta-cyclodextrin) as control in each experiment. At time 0 min the glucose bolus was administered. Levels of blood glucose were assessed using a glucometer (One-Touch Ultra™, LifeScan) at time −60 min (prior to compound administration), at 0 min (time when glucose bolus was given), and at 30, 60, 90, 120 min post glucose bolus. The plasma glucose excursion curves are given in FIGS. 1, 3, and 16, and glucose excursion AUC (area under the curve) reductions in compound treated animals relative to vehicle control are given in FIGS. 2, 4, and 17, and in Table 1.

hGPR119 = biological target: T1, hGPR119 (Homo sapiens, UniProt Q8TDV5); experiment: HTRF cAMP assay in CHO-K1 cells stably expressing the GPR119 receptor; type: cell-based; details: 1 h room temperature
T1 construct: expressed in transfected cells
T1 sequence (Q8TDV5 2-335 limits assumed): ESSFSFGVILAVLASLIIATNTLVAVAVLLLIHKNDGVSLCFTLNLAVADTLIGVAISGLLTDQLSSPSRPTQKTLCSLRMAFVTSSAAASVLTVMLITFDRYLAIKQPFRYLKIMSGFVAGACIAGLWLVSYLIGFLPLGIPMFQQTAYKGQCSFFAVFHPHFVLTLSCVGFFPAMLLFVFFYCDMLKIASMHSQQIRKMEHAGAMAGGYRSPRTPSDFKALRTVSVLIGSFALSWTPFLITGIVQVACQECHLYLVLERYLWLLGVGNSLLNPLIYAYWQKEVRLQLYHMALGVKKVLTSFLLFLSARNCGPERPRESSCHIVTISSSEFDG
Procedure: GPR119 agonists were evaluated in an HTRF® cAMP detection assay according to the manufacturer's instructions (Cisbio, cAMP Dynamic 2 Assay Kit; #62AM4PEJ) using CHO-K1 cells stably expressing the GPR119 receptor. Briefly, CHO-K1 cells were transduced with a lentiviral vector encoding the nucleotide sequence of GPR119 (NCBI mRNA and protein reference sequences: NM_178471.2 & NP_848566, (GPR119 has also been referred to as Glucose-Dependent Insulinotropic Receptor (GDIR)). The N-terminus of the GPR119 nucleotide sequence was modified to replace the first, methionine-coding codon with a nucleotide sequence coding for a standard, nine amino acid, hemagglutinin tag. Following transduction, cells expressing the GPR119 receptor were isolated and a single clone was isolated following standard dilution-cloning procedures. On the day of the assay, cultured CHO-GPR119 cells were harvested, suspended in assay buffer and plated into 384-well assay plates (PerkinElmer Proxiplate #6008280) at a density of 2,000 cells per well. A cAMP standard curve was added to each plate. Test compounds were solubilized in DMSO, serially diluted in DMSO and then diluted in assay buffer before adding to the cells. Test compounds were evaluated in triplicate, using 10-point, 5-fold serial dilutions starting at 10 μM. The final DMSO concentration in the assay was 0.5%. Compounds and cells were incubated for 1 h at room temperature and then detection reagents were added to each well (cAMP-D2 in cell lysis buffer, followed by europium cryptate-labeled anti-cAMP antibody). Plates were then incubated at room temperature for 1 h prior to reading. Time-resolved fluorescence measurements were collected on PerkinElmer Envision™ or BMG Pherastar™ microplate readers. The compound N-(2-fluoro-4-(methylsulfonyl)phenyl)-6-(4-(3-isopropyl-1,2,4-oxadiazol-5-yl)piperidin-1-yl)-5-nitropyrimidin-4-amine was used as a positive control in each runset while assay buffer containing 0.5% DMSO was used as the negative control. The HTRF® assay was used to determine EC50 values for GPR119 agonists.

male 129SVE mice = experiment: Oral glucose tolerance test (oGTT) in male 129SVE mice; type: in vivo, mouse; details: for % Inhibition of Glucose Excursion: AUC reduction relative to vehicle
Procedure: Male 129SVE mice (approximately 8-week old) were fasted for 18 h and randomly grouped (n=6) to receive a GPR119 agonist (Compound 28) at 1, 3, or 10 mg/kg (mg/kg body weight). The compound was delivered orally via a gavage needle (p.o., volume 4 mL/kg) 30 minutes prior to glucose bolus (3 g/kg) (time=−30 min in FIG. 5), with a separate group receiving vehicle (20% hydroxypropyl-beta-cyclodextrin) as control. At time 0 min the glucose bolus was administered. Levels of blood glucose were assessed using a glucometer (One-Touch Ultra™, LifeScan) at time −30 minute (prior to compound administration), at 0 min (at time when glucose bolus was given), and at 20, 40, 60, 120 minutes post glucose bolus. The plasma glucose excursion curve is given in FIG. 5, and glucose excursion AUC (area under the curve) reduction in compound treated animals relative to vehicle control is given in FIG. 6, and in Table 2.

[2] = 10 mg/kg p.o. 1 h prior to glucose bolus (3 g/kg)
[3] = 30 mg/kg p.o. 1 h prior to glucose bolus (3 g/kg)

For “PYY3-36: generated from PYY1-36 by cleavage of the N-terminal Tyr and Pro residues by dipeptidyl peptidase IV; Y2R selective agonist”, the “reduction of food intake” value (humans; human studies, infusion, over 24 hours) is listed as 33%, the “time of decline to basal levels” value (humans; human, after infusion) is listed as at most 30 min and the “time to peak serum levels of PYY3-36” value (humans; human, infusion to reach normal postprandial circulatory concentrations) is listed as at most 15 min.

In the case of `CS(=O)(=O)c1cnc(O[C@H]2CC[C@H](OC3CCN(C(=O)OC(CF)CF)CC3)CC2)cn1` [Compound 71, 1,3-difluoropropan-2-yl 4-((1r,4r)-4-(5-(methylsulfonyl)pyrazin-2-yloxy)cyclohexyloxy)piperidine-1-carboxylate], the “Total GIP, pg/mL (dose, mg/kg)” value (incretin hormone GIP) is reported as 379.8 pg/mL.

In the case of `CC(C)(F)c1noc(N2CCC(O[C@H]3CC[C@H](Oc4cnc(S(C)(=O)=O)cn4)CC3)CC2)n1` [Compound 30, 3-(2-fluoropropan-2-yl)-5-(4-((1r,4r)-4-(5-(methylsulfonyl)pyrazin-2-yloxy)cyclohexyloxy)piperidin-1-yl)-1,2,4-oxadiazole], the “Total GIP, pg/mL (dose, mg/kg)” value (incretin hormone GIP) is reported as 375.7 pg/mL.

In the case of `N[C@@H](CC(=O)N1CCn2c(nnc2C(F)(F)F)C1)Cc1cc(F)c(F)cc1F` [sitagliptin, 3(R)-amino-1-[3-(trifluoromethyl)-5,6,7,8-tetrahydro[1,2,4]triazolo[4,3-a]pyrazin-7-yl]-4-(2,4,5-trifluorophenyl)butan-1-one], the “fasting glucose, postprandial glucose excursion and HbA1c levels” value [1] is given as “reduce fasting glucose and postprandial glucose excursion in association with significantly reduced HbA1c levels”.

In the case of `CC(C)c1noc(C2CCN(c3ncnc(Nc4ccc(S(C)(=O)=O)cc4F)c3[N+](=O)[O-])CC2)n1` [Compound B111, (2-Fluoro-4-methanesulfonyl-phenyl)-{6-[4-(3-isopropyl-[1,2,4]oxadiazol-5-yl)-piperidin-1-yl]-5-nitro-pyrimidin-4-yl}-amine], the glucose tolerance (GPR119) is listed as “improved glucose tolerance to a significantly greater degree than either agent alone” and the “plasma GLP-1 levels” value (GPR119) is listed as “acutely increased plasma GLP-1 levels”.

With `CCC(F)(F)C(=O)N1CCC(O[C@H]2CC[C@H](Oc3cnc(S(C)(=O)=O)cn3)CC2)CC1` [Compound 73, 2,2-difluoro-1-(4-((1r,4r)-4-(5-(methylsulfonyl)pyrazin-2-yloxy)cyclohexyloxy)piperidin-1-yl)butan-1-one] the “Total GIP, pg/mL (dose, mg/kg)” value (incretin hormone GIP) was 195.2 pg/mL.

For `C[C@@H](OC(=O)N1CCC(O[C@H]2CC[C@H](Oc3cnc(S(C)(=O)=O)cn3)CC2)CC1)C(F)(F)F` [Compound 83, (R)-1,1,1-trifluoropropan-2-yl 4-((1r,4r)-4-(5-(methylsulfonyl)pyrazin-2-yloxy)cyclohexyloxy)piperidine-1-carboxylate], the “% Inhibition of Glucose Excursion (dose: mg/kg)” value (shortened to “% Inhibition … (dose: mg/kg)”) (male diabetic ZDF rats; 1.0 mg/kg p.o. 1 h prior to glucose bolus (3 g/kg)) was 14.4% (1.0), the “% Inhibition … (dose: mg/kg)” value (male diabetic ZDF rats; 3.0 mg/kg p.o. 1 h prior to glucose bolus (3 g/kg)) was 44.3% (3.0) and the “% Inhibition … (dose: mg/kg)” value (male diabetic ZDF rats; [2]) was 57.9% (10). For the same compound, the “blood glucose after challenge with glucose” value (“blood glucose after challenge” below) (male diabetic ZDF rats) was “lowered blood glucose” and the EC50 (hGPR119) was 3 nM.

For `CC(C)(F)c1nc(N2CCC(O[C@H]3CC[C@H](Oc4cnc(S(C)(=O)=O)cn4)CC3)CC2)no1` [Compound 62, 5-(2-fluoropropan-2-yl)-3-(4-((1r,4r)-4-(5-(methylsulfonyl)pyrazin-2-yloxy)cyclohexyloxy)piperidin-1-yl)-1,2,4-oxadiazole], the “% Inhibition … (dose: mg/kg)” value (male diabetic ZDF rats; 3.3 mg/kg p.o. 1 h prior to glucose bolus (3 g/kg)) was 25.7% (3.3), the “% Inhibition … (dose: mg/kg)” value (male diabetic ZDF rats; [2]) was 32.7% (10) and the “% Inhibition … (dose: mg/kg)” value (male diabetic ZDF rats; [3]) was 48.0% (30). The “blood glucose after challenge” value (male diabetic ZDF rats) was “lowered blood glucose” and the “Total GIP, pg/mL (dose, mg/kg)” value (incretin hormone GIP) was 368.5 pg/mL.

With `CC(C)OC(=O)N1CCC(O[C@H]2CC[C@H](Oc3cnc(S(C)(=O)=O)cn3)CC2)CC1` [Compound 28, isopropyl 4-((1r,4r)-4-(5-(methylsulfonyl)pyrazin-2-yloxy)cyclohexyloxy)piperidine-1-carboxylate] the “% Inhibition … (dose: mg/kg)” value (male diabetic ZDF rats; [2]) was 54.7% (10), the “% Inhibition … (dose: mg/kg)” value (male diabetic ZDF rats; [3]) was 76.5% (30) and the “blood glucose after challenge” value (male diabetic ZDF rats) was “lowered blood glucose”. The “blood glucose after challenge” value (male 129SVE mice) was “lowered blood glucose”, the “% Inhibition of Glucose Excursion” value (male 129SVE mice; 1 mg/kg p.o. 30 minutes prior to glucose bolus (3 g/kg)) was 24.9% and the “% Inhibition of Glucose Excursion” value (male 129SVE mice; 3 mg/kg p.o. 30 minutes prior to glucose bolus (3 g/kg)) was 26.4%. For the same compound, the “% Inhibition of Glucose Excursion” value (male 129SVE mice; 10 mg/kg p.o. 30 minutes prior to glucose bolus (3 g/kg)) was 35.7% and the “Total GIP, pg/mL (dose, mg/kg)” value (incretin hormone GIP) was 468.1 pg/mL.

In the case of `N#C[C@@H]1CCCN1C(=O)CNC12CC3CC(CC(O)(C3)C1)C2` [vildagliptin, 1-[2-(3-hydroxyadamant-1-ylamino)acetyl]pyrrolidine-2(S)-carbonitrile], the “fasting glucose, postprandial glucose excursion and HbA1c levels” value [1] is given as “reduce fasting glucose and postprandial glucose excursion in association with significantly reduced HbA1c levels”.
